Experimental data from patent US20250122181A1, “BENZIMIDAZOLES AS MODULATORS OF IL-17” (Janssen Pharmaceutica NV, priority 2021, published 2025).

How the values were obtained:
[1] = system: IL-17A-induced G-CSF production in human normal keratinocyte (NHK); assay: NHK Assay: IL-17A-induced G-CSF production in human normal keratinocyte; assay type: cell-based; conditions: 24 h, IL-17A 5 ng/mL, simple average if tested more than once
Protocol: IL-17A acts directly on keratinocytes through binding to dimeric receptor IL-17RA/RC and drives the production of a number of inflammatory mediators known to be elevated in psoriasis lesional tissue. IL-17A small molecule inhibitors that block the IL-17A to interact with IL-17R would inhibit the IL-17A signaling in its targeted cells such as keratinocytes. The compound functional activity is evaluated for its impact on IL-17A-induced G-CSF production in human normal keratinocyte (NHK).
Adult normal human keratinocytes are cultured in keratinocyte growth medium (Lonza) in a flask till reaching ˜90% confluence, then cells are transferred to a 384-well plate at density of 3000-4000 cell/well. Recombinant human IL-17A (Gibco PHC9174) is pre-incubated with titrated compound or DMSO for 1 h at rt then added to the cell culture plate. The final concentration of IL-17A is 5 ng/mL and DMSO is 0.2%, in the culture containing 5% FBS. Cells are cultured/treated for 24 h at 37° C. Supernatants are collected and G-CSF production is measured through HTRF technology using Human G-CSF Kit (CisBio). G-CSF concentration was extrapolated from the standard curve and IC50 is determined using GraphPad Prism. Cell viability is also evaluated using CellTiter-Glo kit (Promega) and effect of compound on cell viability is compared to DMSO control.

[2] = target: IL-17A(FLAG-Tagged): IL-17RA(His-Tagged) (Homo sapiens, UniProt Q16552, K93Q); assay: IL-17A(FLAG-Tagged): IL-17RA(His-Tagged) Binding Disruption Eu-HTRF Assay, Protocol 1; conditions: Protocol 1, FLAG tagged IL-17A 2.5 nM; simple average if tested more than once
Text: An antibody directed against the FLAG tag of IL-17A (SEQ ID NO: 1) is labeled with the HTRF donor chromophore (Europium-cryptate). IL-17A is present as a dimer that is “locked into” this quaternary structure due to the formation of loop-spanning […] disulfide bridges. The construct of IL-17RA used in the assay excludes the […] portion of the receptor and is fused to a C-terminal 10×His tag (SEQ ID NO:2). An antibody directed against the His tag of the IL-17RA chimera is labeled with the HTRF acceptor chromophore (“D2”). The fluorescence-resonance energy transfer (FRET) depends on the vicinity of the donor chromophore to the acceptor, and interruption of the binding between the IL-17A and IL-17RA causes the reduction/loss of FRET. Therefore, this assay allows to evaluate the compound effect on the binding IL-17A and IL-17RA by monitoring the fluorescence intensity of donor vs acceptor. The assay was run using either Protocol 1 or Protocol 2 as described below.
Protocol 1. 40 nl of 2-fold serial diluted compound solution for total 22 dilution points is added into each well of a 1536-well, white, low-volume, non-binding plate (Greiner #782904), then 2 μl of FLAG tagged IL-17A at 2× final concentration (2.5 nM) in solution of PBS+0.01% Triton-X100 is added to each well. The assay plate is briefly centrifuged then incubated for 1 h at rt. A mixed solution is prepared containing 2×5 nM 10HIS×IL-17RA, 2×2.5 nM Eu-anti-FLAG (CISBIO), 2×5 nM D2-anti-HIS (CISBIO) in PBS+0.01% Triton-X100+200 mM Potassium Fluoride (Sigma 60238) and 2 μl of mix is added to each well of the assay plate. The plate is briefly centrifuged then incubated for 2 h at rt. The HTRF intensities at the wavelength of donor (620 nm) and acceptor (665 nm) are measured using BMG Pherastar. The ratio between intensities at two wavelengths is calculated and plotted against the compound concentration and the data is fitted to a one-site competition model to yield IC50 of the compound.

Chain of UniProt Q16552 (Q16552 with tags, fused parts or gaps K93Q): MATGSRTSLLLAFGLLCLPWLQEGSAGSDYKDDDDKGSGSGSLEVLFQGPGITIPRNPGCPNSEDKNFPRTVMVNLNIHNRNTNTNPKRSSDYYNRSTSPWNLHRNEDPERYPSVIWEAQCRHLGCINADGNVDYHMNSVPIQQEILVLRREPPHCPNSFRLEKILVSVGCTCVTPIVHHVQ

Row | SMILES | IC50 ([1]; Homo sapiens, Keratinocyte) | IC50 [2] | IC50 [1]
1 | [2H]C1([2H])[C@H](C(F)(F)F)NC(=O)N1[C@@H](c1ccc2[nH]c([C@@H](NC(=O)c3nonc3C)[C@@H](C)O[C@H](C)C(F)(F)F)nc2c1)C1CC1 (relative stereo) [Example 8, N-((1R*,2R)-1-(5-((R)-Cyclopropyl((R*)-2-oxo-4-(trifluoromethyl)imidazolidin-1-yl-5,5-d2)methyl)-1H-benzo[d]imidazol-2-yl)-2-(((R)-1,1,1-trifluoropropan-2-yl)oxy)propyl)-4-methyl-1,2,5-oxadiazole-3-carboxamide] | > 0.1 µM | 0.05 to 0.1 µM | 
2 | [2H]C1([2H])[C@@H](C(F)(F)F)NC(=O)N1[C@@H](c1ccc2[nH]c([C@@H](NC(=O)c3nonc3C)[C@@H](C)O[C@H](C)C(F)(F)F)nc2c1)C1CC1 (relative stereo) [Example 9, N-((1R*,2R)-1-(5-((R)-Cyclopropyl((S*)-2-oxo-4-(trifluoromethyl)imidazolidin-1-yl-5,5-d2)methyl)-1H-benzo[d]imidazol-2-yl)-2-(((R)-1,1,1-trifluoropropan-2-yl)oxy)propyl)-4-methyl-1,2,5-oxadiazole-3-carboxamide] | < 0.05 µM | < 0.05 µM | 
3 | [2H]C1([2H])[C@@H](C(F)(F)F)NC(=O)N1[C@@H](c1ccc2[nH]c([C@@H](NC(=O)c3nonc3C)[C@@H](C)O[C@@H](C)C(F)(F)F)nc2c1)C1CC1 (relative stereo) [Example 12, N-((1R*,2R)-1-(5-((R)-Cyclopropyl((S*)-2-oxo-4-(trifluoromethyl)imidazolidin-1-yl-5,5-d2)methyl)-1H-benzo[d]imidazol-2-yl)-2-(((S)-1,1,1-trifluoropropan-2-yl)oxy)propyl)-4-methyl-1,2,5-oxadiazole-3-carboxamide] |  | < 0.05 µM | < 0.05 µM
4 | C[C@H](c1ccc2[nH]c([C@H](COC(C)(C)C(F)(F)F)NC(=O)c3nonc3C3CC3)nc2c1)N1CC(F)(F)CNC1=O (relative stereo) [Example 25, 4-Cyclopropyl-N—((R)-1-(5-((R*)-1-(5,5-difluoro-2-oxotetrahydropyrimidin-1(2H)-yl)ethyl)-1H-benzo[d]imidazol-2-yl)-2-((1,1,1-trifluoro-2-methylpropan-2-yl)oxy)ethyl)-1,2,5-oxadiazole-3-carboxamide] | < 0.05 µM | < 0.05 µM | 
5 | Cc1nonc1C(=O)N[C@@H](COC(C)(C)C(F)(F)F)c1nc2cc([C@@H](C)N3CC(F)(F)CNC3=O)ccc2[nH]1 (relative stereo) [Example 26, N—((R)-1-(5-((R*)-1-(5,5-Difluoro-2-oxotetrahydropyrimidin-1(2H)-yl)ethyl)-1H-benzo[d]imidazol-2-yl)-2-((1,1,1-trifluoro-2-methylpropan-2-yl)oxy)ethyl)-4-methyl-1,2,5-oxadiazole-3-carboxamide] | < 0.05 µM | < 0.05 µM | 
6 | CC(C)n1nccc1C(=O)N[C@@H](COC(C)(C)C(F)(F)F)c1nc2cc([C@@H](C)N3CC(F)(F)CNC3=O)ccc2[nH]1 (relative stereo) [Example 27, N—((R)-1-(5-((R*)-1-(5,5-Difluoro-2-oxotetrahydropyrimidin-1(2H)-yl)ethyl)-1H-benzo[d]imidazol-2-yl)-2-((1,1,1-trifluoro-2-methylpropan-2-yl)oxy)ethyl)-1-isopropyl-1H-pyrazole-5-carboxamide] | < 0.05 µM | < 0.05 µM | 
7 | CC(C)n1nccc1C(=O)N[C@@H](COC(C)(C)C(F)(F)F)c1nc2nc(CN3C[C@H](C(F)(F)F)NC3=O)ccc2[nH]1 (relative stereo) [Example 36, 1-Isopropyl-N—((R*)-1-(5-(((R*)-2-oxo-4-(trifluoromethyl)imidazolidin-1-yl)methyl)-1H-imidazo[4,5-b]pyridin-2-yl)-2-((1,1,1-trifluoro-2-methylpropan-2-yl)oxy)ethyl)-1H-pyrazole-5-carboxamide] | < 0.05 µM | < 0.05 µM | 
8 | CC(C)n1nccc1C(=O)N[C@@H](COC(C)(C)C(F)(F)F)c1nc2nc(CN3C[C@@H](C(F)(F)F)NC3=O)ccc2[nH]1 (relative stereo) [Example 37, 1-Isopropyl-N—((R*)-1-(5-(((S*)-2-oxo-4-(trifluoromethyl)imidazolidin-1-yl)methyl)-1H-imidazo[4,5-b]pyridin-2-yl)-2-((1,1,1-trifluoro-2-methylpropan-2-yl)oxy)ethyl)-1H-pyrazole-5-carboxamide] | > 0.1 µM | > 0.1 µM | 
9 | [2H]C1([2H])NC(=O)N([C@@H](c2ccc3[nH]c([C@H](COC(C)(C)C(F)(F)F)NC(=O)c4nonc4C)nc3c2)C2CC2)C([2H])([2H])C1(F)F [Example 80, N—((R)-1-(5-((R)-Cyclopropyl(5,5-difluoro-2-oxotetrahydropyrimidin-1(2H)-yl-4,4,6,6-d4)methyl)-1H-benzo[d]imidazol-2-yl)-2-((1,1,1-trifluoro-2-methylpropan-2-yl)oxy)ethyl)-4-methyl-1,2,5-oxadiazole-3-carboxamide] | < 0.05 µM |  | 
10 | [2H]C1([2H])NC(=O)N([C@@H](c2ccc3[nH]c([C@H](COC(C)(C)C(F)(F)F)NC(=O)c4nonc4C)nc3c2)C2CC2)CC1(F)F [Example 81, N-[(1R)-1-[5-[(R)-Cyclopropyl-(4,4-dideuterio-5,5-difluoro-2-oxo-hexahydropyrimidin-1-yl)methyl]-1H-benzimidazol-2-yl]-2-(2,2,2-trifluoro-1,1-dimethyl-ethoxy)ethyl]-4-methyl-1,2,5-oxadiazole-3-carboxamide] | < 0.05 µM |  | 
11 | [2H]C1([2H])NC(=O)N([C@@H](c2ccc3[nH]c([C@H](COC(C)(C)C(F)(F)F)NC(=O)c4nonc4C4CC4)nc3c2)C2CC2)CC1(F)F [Example 82, 4-Cyclopropyl-N-[(1R)-1-[5-[(R)-cyclopropyl-(4,4-dideuterio-5,5-difluoro-2-oxo-hexahydropyrimidin-1-yl)methyl]-1H-benzimidazol-2-yl]-2-(2,2,2-trifluoro-1,1-dimethyl-ethoxy)ethyl]-1,2,5-oxadiazole-3-carboxamide] | < 0.05 µM |  | 
12 | Cc1nonc1C(=O)N[C@H](c1nc2c(F)cc([C@@H](C3CC3)N3C[C@@H](C(F)(F)F)NC3=O)cc2[nH]1)[C@@H](C)O[C@H](C)C(F)(F)F [Example 86, N-[(1R,2R)-1-[6-[(R)-Cyclopropyl-[(4S)-2-oxo-4-(trifluoromethyl)imidazolidin-1-yl]methyl]-4-fluoro-1H-benzimidazol-2-yl]-2-[(1R)-2,2,2-trifluoro-1-methyl-ethoxy]propyl]-4-methyl-1,2,5-oxadiazole-3-carboxamide] | < 0.05 µM |  | 
13 | Cc1nonc1C(=O)N[C@H](c1nc2ccc(CN3C[C@@H](C(F)(F)F)NC3=O)c(F)c2[nH]1)[C@@H](C)O[C@H](C)C(F)(F)F [Example 92, N-[(1R,2R)-1-[7-Fluoro-6-[[(4S)-2-oxo-4-(trifluoromethyl)imidazolidin-1-yl]methyl]-1H-benzimidazol-2-yl]-2-[(1R)-2,2,2-trifluoro-1-methyl-ethoxy]propyl]-4-methyl-1,2,5-oxadiazole-3-carboxamide] | < 0.05 µM |  | 
14 | C[C@@H](O[C@H](C)C(F)(F)F)[C@H](NC(=O)c1nonc1C1CC1)c1nc2ccc(CN3C[C@@H](C(F)(F)F)NC3=O)c(F)c2[nH]1 [Example 93, 4-Cyclopropyl-N-[(1R,2R)-1-[7-fluoro-6-[[(4S)-2-oxo-4-(trifluoromethyl)imidazolidin-1-yl]methyl]-1H-benzimidazol-2-yl]-2-[(1R)-2,2,2-trifluoro-1-methyl-ethoxy]propyl]-1,2,5-oxadiazole-3-carboxamide] | < 0.05 µM |  | 
